What all share (type): binding
The target of one assay is T1, full-length Plk1 (Homo sapiens, UniProt P53350).
T1 construct: a plasmid encoding myc-tagged full-length Plk1 (Addgene, Plasmid #41160); host or cells: HEK-293T (crude cytosolic lysate, not purified)
As to the kind of experiment: ELISA assay using full-length Plk1.

The next assay deals with Plk2 PBD. As to the kind of experiment: Fluorescence polarization (FP) assay, isolated Plk2 PBD. The following applies: average ± SEM. The procedure:
(§1) Plasmids encoding the myc-tagged PBDs of Plk2 and Plk3 were generous gifts from Prof. […] The supernatant containing expressed protein was diluted into 8 mL of PBS (pH 7.4) containing protease/phosphatase inhibitor cocktail. This protein solution was added to a 1 mL bed of myc-agarose resin (Thermo Scientific, Waltham, MA, USA) and allowed to bind for 2 h at 4 °C with gentle rotation. The lysate was eluted and the resin was washed 4× with 4-(2-hydroxyethyl)-1-piperazineethanesulfonic acid (HEPES) buffered saline (HBS) containing 0.05% Tween-20, 1 mM dithiothreitol (DTT) and 1 mM ethylenediaminetetraacetic acid (EDTA). The bound PBD protein was then eluted with a 1 mg/mL solution of myc peptide ([…]) in HBS + 1 mM DTT and 1 mM EDTA. […] The concentration of the final protein solution was determined by absorbance at 280 nm and purity was determined by SDS-PAGE (sodium dodecyl sulfate-polyacrylamide gel electrophoresis) with Coomassie staining.
(§2) As previously reported, isolated PBD protein was diluted to a 2× working dilution in assay buffer (HEPES-buffered saline with 0.05% Tween-20, 1 mM DTT, and 1 mM EDTA). […] Normalized values were plotted versus concentration and analyzed using non-linear regression in GraphPad Prism 8 (GraphPad Software, San Diego, CA, USA) [log(inhibitor) vs. response-variable slope (four parameter) model].

For another assay, the target named is T2, Plk1 PBD (Homo sapiens, UniProt P53350).
T2 construct: a plasmid encoding myc-tagged Plk1 PBD was purchased from Addgene; host or cells: HEK-293T
Put plainly: Fluorescence polarization (FP) assay, isolated Plk1 PBD. The following applies: for IC50: FP assay, average ± SEM. The procedure:
as §1
As previously reported, isolated PBD protein was diluted to a 2× working dilution in assay buffer (HEPES-buffered saline with 0.05% Tween-20, 1 mM DTT, and 1 mM EDTA). […] Inhibitors were serially diluted to generate 4× working dilutions in assay buffer containing 4% DMSO. 20 μL of 2× PBD solution was added to each well of a 384-well plate (0% binding controls received 20 μL of assay buffer). 10 μL of the 4× inhibitor solution (or DMSO blank) was added to corresponding wells and allowed to pre-incubate at RT for 30 min with shaking. The following sequences were utilized as fluorescent probes: 5CF-GPMQSpTPLNG-NH2 for Plk1 PBD; 5CF-GPMQTSpTPKNG-NH2 for Plk2 PBD and 5CF-PLATSpTPKNG-NH2 for Plk3 PBD [10]. Fluorescent probes were diluted to 40 nM (4×) in assay buffer and then 10 μL was added to each well. The plate was allowed to equilibrate at room temperature for (30 min) with shaking. […] The FP values were obtained in triplicate and normalized to 100% (no inhibitor) and 0% binding (no protein) controls. Normalized values were plotted versus concentration and analyzed using non-linear regression in GraphPad Prism 8 (GraphPad Software, San Diego, CA, USA) [log(inhibitor) vs. response-variable slope (four parameter) model].

Another assay concerns the target T3, Plk3 PBD (Homo sapiens, UniProt Q9H4B4).
T3 sequence (Q9H4B4 418-646 limits assumed): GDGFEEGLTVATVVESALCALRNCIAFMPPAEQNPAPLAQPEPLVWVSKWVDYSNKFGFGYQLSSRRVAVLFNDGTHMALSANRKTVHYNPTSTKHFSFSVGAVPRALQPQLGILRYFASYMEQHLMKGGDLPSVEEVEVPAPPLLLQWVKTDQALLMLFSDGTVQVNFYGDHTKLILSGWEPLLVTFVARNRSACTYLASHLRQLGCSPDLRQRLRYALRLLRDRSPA
Put plainly: Fluorescence polarization (FP) assay, isolated Plk3 PBD. The following applies: average ± SEM. As to the method:
as §1, §2

Starred links: 1 amine or outer side, 2 acyl side, 3 side chain; linkers in the order of their positions; H or OH if unused. Non-standard residues stand in square brackets, D forms with d. Residues, ends and D or L forms follow the SMILES beside them. X1 = O=C([C@H](Cc1cncn1CCCCc1cn(Cc2c(F)cccc2Oc2ccccc2)nn1)N[*:1])[*:2]; X3 = O=C([C@H](Cc1cncn1CCCCc1cn(Cc2ccc(F)c(Cl)c2)nn1)N[*:1])[*:2]; X4 = O=C([C@H](Cc1cncn1CCCCc1cn(Cc2ccc(F)cc2)nn1)N[*:1])[*:2]; X2 = O=C([C@H](Cc1cncn1CCCCc1cn(Cc2ccccc2)nn1)N[*:1])[*:2]; X5 = C#CCCCCn1cncc1C[C@H](N[*:1])C(=O)[*:2]; pT = C[C@@H](OP(=O)(O)O)[C@H](N)C(=O)O; Pra = C#CC[C@H](N)C(=O)O

T2 sequence (P53350 326-603 limits assumed): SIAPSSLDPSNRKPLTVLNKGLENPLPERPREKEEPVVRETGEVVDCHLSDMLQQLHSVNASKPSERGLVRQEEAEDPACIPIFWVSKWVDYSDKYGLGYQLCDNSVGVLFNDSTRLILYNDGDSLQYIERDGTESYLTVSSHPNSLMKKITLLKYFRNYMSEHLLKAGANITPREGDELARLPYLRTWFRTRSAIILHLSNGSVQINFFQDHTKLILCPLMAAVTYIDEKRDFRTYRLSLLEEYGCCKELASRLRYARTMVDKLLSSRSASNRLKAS
T1 sequence (P53350 whole entry): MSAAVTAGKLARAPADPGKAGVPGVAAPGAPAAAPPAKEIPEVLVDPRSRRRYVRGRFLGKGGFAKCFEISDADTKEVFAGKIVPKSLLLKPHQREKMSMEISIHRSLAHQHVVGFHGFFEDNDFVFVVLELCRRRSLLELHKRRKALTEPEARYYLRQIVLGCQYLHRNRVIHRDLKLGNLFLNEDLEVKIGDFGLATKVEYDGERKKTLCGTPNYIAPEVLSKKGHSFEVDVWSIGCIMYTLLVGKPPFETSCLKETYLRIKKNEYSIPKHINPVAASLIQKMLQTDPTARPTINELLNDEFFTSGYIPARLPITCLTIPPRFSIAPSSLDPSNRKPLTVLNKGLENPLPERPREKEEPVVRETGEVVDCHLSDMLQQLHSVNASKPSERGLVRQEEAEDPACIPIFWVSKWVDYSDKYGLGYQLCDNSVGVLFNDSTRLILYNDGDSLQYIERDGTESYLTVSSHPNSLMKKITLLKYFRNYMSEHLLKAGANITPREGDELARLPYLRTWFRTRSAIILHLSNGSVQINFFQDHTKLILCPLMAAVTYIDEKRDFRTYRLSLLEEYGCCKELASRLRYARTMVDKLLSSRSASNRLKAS
Description for full-length Plk1: Following 48 h expression, cells were harvested, lysed in buffer (PBS, pH 7.4 with 0.5% NP-40 and protease/phosphatase inhibitor cocktail) using freeze/thaw cycles (3×) and centrifuged at 10,000× g for 10 min at 4 °C. The supernatant was removed to provide a crude cytosolic lysate containing overexpressed, myc-tagged Plk1 (total protein concentration determined by bicinchoninic acid (BCA) assay).
As previously reported [25, 26, 50] a biotinylated phosphopeptide (sequence: Biotin-Ahx-PMQS(pT)PLN-NH2) was diluted to 1 µM (from a 2 mM DMSO stock solution) in PBS (pH 7.4) and loaded onto the wells of a 96-well Neutravidin-coated plate (Pierce Biotechnology, ThermoFisher Scientific, Waltham, MA, USA) at 100 µL per well for 1 h (background control contained no biotinylated peptide). The wells were washed once with 150 µL PBST (PBS, pH 7.4 + 0.05% Tween-20), and then 100 µL of 1% BSA in PBS (pH 7.4) (blocking buffer) was added for 1 h. A cytosolic lysate-containing transiently expressed myc-tagged Plk1 protein was diluted to 300 µg/mL in PBS (pH 7.4) containing protease/phosphatase inhibitors (Pierce Biotechnology), mixed with competitive inhibitor (from a 10× stock in ~4% DMSO/PBS), and allowed to pre-incubate for 1 h (100 µL per well in a 96-well plate, 30 µg total protein). The blocked ELISA plate was washed 2× with PBST (PBS, pH 7.4 + 0.05% Tween-20) (150 µL) and the pre-incubated lysates were added to the plate and incubated (1 h). […] The wells were then washed 5× with PBST (150 µL) and incubated with Turbo TMB (3,3′,5,5′-tetramethyl benzidine substrate)-ELISA solution (Pierce Biotechnology) until the desired absorbance was reached (5–10 min). The reaction was quenched by the addition of 2 N aqueous H2SO4 and the absorbance was measured at 450 nm using a BioTek Synergy 2 96-well plate reader. Absorbance was plotted versus concentration (logM) and fit to a non-linear regression analysis using GraphPad Prism 8 software [model: log(inhibitor) vs. response-variable slope (four parameters)].

In the case of `CC(=O)N1CCC[C@H]1C(=O)N[C@@H](CC(C)C)C(=O)N[C@@H](Cc1cncn1CCCCc1cn(Cc2c(F)cccc2Oc2ccccc2)nn1)C(=O)N[C@@H](CO)C(=O)N[C@H](C(N)=O)[C@@H](C)OP(=O)(O)O` [Peptide 3d] (Ac-PL[X1]S[pT]-NH2), the IC50 on full-length Plk1 (ELISA, myc-tagged full-length Plk1 lysate, ± SEM, read-out: IC50 (nM) against full-length Plk1) came to 12000 ± 2100 nM; in the assay with Plk2 PBD it was 5900 ± 420 nM; at Plk1 PBD, 25 ± 1.6 nM; against Plk3 PBD, 9900 ± 2200 nM. Moreover, at full-length Plk1 (full-length Plk1 ELISA IC50 vs isolated PBD FP IC50), the “Fold-change relative to isolated PBD value” was 480 ×. Moreover, the “potency reduction in the full-length assay relative to the isolated PBD assay” value on full-length Plk1 (full-length Plk1 ELISA vs isolated PBD FP) amounted to 480 fold.
In the case of `C#CCCCCn1cncc1C[C@H](NC(=O)[C@H](CC(C)C)NC(=O)[C@@H]1CCCN1C(C)=O)C(=O)N[C@@H](CO)C(=O)N[C@H](C(N)=O)[C@@H](C)OP(=O)(O)O` [Peptide 13] (Ac-PL[X5]S[pT]-NH2), the IC50 at Plk1 PBD was determined as 1100 ± 45 nM.
For `C#CC[C@H](NC(=O)[C@H](CC(C)C)NC(=O)[C@@H]1CCCN1C(C)=O)C(=O)N[C@@H](CO)C(=O)N[C@H](C(N)=O)[C@@H](C)OP(=O)(O)O` [Peptide 17] (Ac-PL[Pra]S[pT]-NH2), the “loss of Plk1 PBD-binding affinity compared with parent peptide 1” value on Plk1 PBD (FP) is reported as roughly 2 fold. The IC50 against Plk1 PBD worked out at 1000 ± 140 nM.
With `CC(=O)N1CCC[C@H]1C(=O)N[C@@H](CC(C)C)C(=O)N[C@@H](Cc1cncn1CCCCc1cn(Cc2ccc(F)c(Cl)c2)nn1)C(=O)N[C@@H](CO)C(=O)N[C@H](C(N)=O)[C@@H](C)OP(=O)(O)O` [Peptide 3c] (Ac-PL[X3]S[pT]-NH2), at Plk1 PBD, the IC50 was determined as 130 ± 9.8 nM.
`CC(=O)N1CCC[C@H]1C(=O)N[C@@H](CC(C)C)C(=O)N[C@@H](Cc1cncn1CCCCc1cn(Cc2ccc(F)cc2)nn1)C(=O)N[C@@H](CO)C(=O)N[C@H](C(N)=O)[C@@H](C)OP(=O)(O)O` [Peptide 3b] (Ac-PL[X4]S[pT]-NH2): inhibition at Plk1 PBD was half-maximal at 100 ± 19 nM (IC50).
With `CC(=O)N1CCC[C@H]1C(=O)N[C@@H](CC(C)C)C(=O)N[C@@H](Cc1cncn1CCCCc1cn(Cc2ccccc2)nn1)C(=O)N[C@@H](CO)C(=O)N[C@H](C(N)=O)[C@@H](C)OP(=O)(O)O` [Peptide 3a] (Ac-PL[X2]S[pT]-NH2), the “relative loss of Plk1 PBD-binding affinity versus peptide 2a” value at Plk1 PBD (FP) is roughly 8 fold. On Plk1 PBD, the IC50 amounted to 110 ± 6.6 nM.

Source of the values: PMC6515314 (Molecules, 2019).
